Measured values taken from patent publication US20190083497A1, “MODULATION OF BLOOD BRAIN BARRIER PERMEABILITY” (Cornell University, priority 2008, published 2019).

Tests used:
hCMEC/D3 cells [1] = experiment: Jurkat cell migration across hCMEC/D3 transwell in vitro BBB; format: cell-based, human; conditions: hCMEC/D3 on Transwell; migrated cells counted after 24 hours
Description: The blood brain barrier (BBB) is comprised of endothelial cells. During late stages of EAE, lymphocytes are known to cross the BBB. In order to determine if adenosine receptor stimulation of brain endothelial cells could promote lymphocyte migration through the BBB, an in vitro BBB was established. The human brain endothelial cell line hCMEC/D3 (Weksler et al., “Blood-brain Barrier-specific Properties of a Human Adult Brain Endothelial Cell Line,” J. Neurochem. 19(13):1872-4 (2005); Poller et al., “The Human Brain Endothelial Cell Line hCMEC/D3 as a Human Blood-brain Barrier Model for Drug Transport Studies,” J. Neurochem. 107(5):1358-1368 (2008), which are hereby incorporated by reference in their entirety) was obtained, which has been previously described as having BBB properties.
hCMEC/D3 cells were seeded onto Transwell and allowed to grow to confluencey. 2×10^6 Jurkat cells were added to the upper chamber with or without NECA (general adenosine receptor [AR] agonist), CCPA (A1AR agonist), CGS 21680 (A2AAR agonist), or DMSO vehicle. After 24 hours, migrated cells in the lower chamber were counted. Values are relative to the number of cells that migrate through non-HCMECD3 seeded transwells.

Z310 cells = experiment: Jurkat cell migration across Z310 choroid plexus cell transwell; format: cell-based, murine; conditions: Z310 cells on Transwell; migrated cells counted after 24 hours; n=1
Description: The choroid plexus (“CP”) controls lymphocyte migration into the CNS. The CP expresses the A1 and A2a adenosine receptors. EAE is prevented in mice when A2a adenosine receptor activity is blocked. EAE is enhanced when the A1 adenosine receptor is missing. It was hypothesized that A2a adenosine receptor activation promotes lymphocyte migration across the CP. Z310 cells are a murine choroid plexus cell line. To test the hypothesis, Transwell membranes were seeded with Z310 cells and allowed to grow to confluencey. 2×10^6 Jurkat cells were added to the upper chamber with or with out NECA (n=1, general AR agonist), CCPA (n=1, A1AR agonist), CGS 21680 (n=1, A2AAR agonist), or DMSO vehicle(n=1). After 24 hours, migrated cells in the lower chamber were counted. Values are relative to the number of cells that migrate through non-Z310 seeded transwells and the results are shown in FIG. 12.

hCMEC/D3 cells [2] = experiment: cAMP levels in hCMEC/D3 cells (cAMP Screen kit); format: cell-based, human; conditions: 15 minutes treatment
Description: Adenosine receptor activation regulates cAMP levels in cells. In order to determine the sensitivity of human brain endothelial cells to adenosine receptor induced cAMP regulation, human brain endothelial cells were cultured with adenosine receptor agonists at various concentrations, followed by cAMP level analysis, as shown in FIG. 13.
HCMECD3 cells were grown to confluencey on 24 well plates. As adenosine receptor (“AR”) stimulation is known to influence cAMP levels, cells were treated with or without various concentrations of NECA (general AR agonist), CCPA (A1AR agonist), CGS 21680 (A2AAR agonist), DMSO vehicle, or Forksolin (induces cAMP). After 15 minutes, lysis buffer was added and the cells were frozen at −80 C to stop the reaction. Duplicate samples were used for each condition. cAMP levels were assayed using a cAMP Screen kit (Applied Biosystems, Foster City, Calif.).

EAE-induced mice = experiment: EAE induction and scoring (MOG35-55/CFA + pertussis toxin); format: in vivo, mouse
Description: C57BL/6 and tcrα^−/− mice on the C57BL/6 background were purchased from The Jackson Laboratories. Mice were bred and housed under specific pathogen-free conditions at Cornell University or the University of Turku. For adenosine receptor blockade experiments, mice were given drinking water supplemented with 0.6 g/L of caffeine (Sigma) or 2 mg/kg SCH58261 (1 mg/kg s.c. and 1 mg/kg i.p.) in DMSO (45% vol. in PBS) or 45% DMSO alone starting 1 day before EAE induction and continuing throughout the experiment. All procedures performed on mice were approved by the relevant animal review committee.
EAE was induced by subjecting mice to the myelin oligodendrocyte glycoprotein (“MOG”) EAE-inducing regimen as described in Swanborg, “Experimental Autoimmune Encephalomyelitis in Rodents as a Model for Human Demyelinating Disease,” Clin. Immunol. […] Briefly, a 1:1 emulsion of MOG35-55 peptide (3 mg/ml in PBS) (Invitrogen) and complete Freund's adjuvant (CFA, Sigma) was injected subcutaneously (50 μl) into each flank. Pertussis toxin (PTX, 20 ng) (Biological Laboratories Inc.) was given intravenously (200 μl in PBS) at the time of immunization and again 2 days later. Mice were scored daily for EAE based on disease symptom severity; 0=no disease, 0.5 -1=weak/limp tail, 2=limp tail and partial hind limb paralysis, 3=total hind limb paralysis, 4=both hind limb and fore limb paralysis, 5=death. Mice with a score of 4 were euthanized.
Wild type mice were given 1 mg/kg of SCH58261 in DMSO or DMSO alone both i.p. and s.c. (for a total of 2 mg/kg) 1 day prior to EAE induction and daily for 30 days throughout the course of the experiment (FIG. 7C).

blood brain barrier = experiment: FITC-Dextran extravasation through the brain endothelium; format: in vivo, mouse; conditions: 30 minutes after IP FITC Dextran
Description: In order to examine the effects of caffeine, a general adenosine receptor antagonist, on blood brain barrier permeability, mice were fed caffeine for several days and then injected with FITC Dextran, commonly used to assess endothelial permeability.
More particularly, mice were fed 0.6 g/l caffeine (Sigma, St. Louis, Mo.) in water or regular water ad lib for five days. Mice were injected IP with FITC Dextran (10,000 MW, Molecular Probes, Eugene, Oreg.) and after 30 minutes mice were perfused with ice cold PBS via the left ventricle. Brains were removed and snap frozen in OCT (Tissue Tek, Torrance, Calif.) and stored at −80° C. until sectioning. Tissue sections (5 μm) were stained with hematoxylin for light microscopy and with DAPI for a fluorescent counterstain.

OC[C@H]1O[C@@H](n2cnc3c(NC4CCCC4)nc(Cl)nc32)[C@H](O)[C@@H]1O [CCPA] was tested, and the “lymphocyte (Jurkat) migration across the in vitro BBB” value (hCMEC/D3 cells [1]) was “induced lymphocyte migration at high levels”, the “lymphocyte (Jurkat) migration across the CP” value (Z310 cells) was “induced lymphocyte migration at high levels” and the cAMP levels (hCMEC/D3 cells [2]; high levels of the agonist) was “increased cAMP levels”.

For CCNC(=O)[C@H]1O[C@@H](n2cnc3c(N)nc(NCCc4ccc(CCC(=O)O)cc4)nc32)[C@H](O)[C@@H]1O [CGS], the “lymphocyte (Jurkat) migration across the in vitro BBB” value (hCMEC/D3 cells [1]) was “promoted lymphocyte migration across the in vitro BBB when used at a lower concentration”, the “lymphocyte (Jurkat) migration across the CP” value (Z310 cells) was “promoted lymphocyte migration across the CP” and the cAMP levels (hCMEC/D3 cells [2]; various concentrations) was “slightly increased cAMP levels”.

For Cn1c(=O)c2c(ncn2C)n(C)c1=O [caffeine], the “EAE development (mean EAE score)” value (EAE-induced mice; cd73-/- mice, caffeine 0.6 g/L in drinking water from 1 day prior to and throughout the EAE experiment) was “did not develop EAE”, the “EAE development (mean EAE score)” value (EAE-induced mice; wild type mice, caffeine 0.6 g/L in drinking water from 1 day prior to and throughout the EAE experiment) was “dramatically protected against EAE development” and the “FITC-Dextran extravasation across the blood brain barrier (green color of brain sections)” value (blood brain barrier; CD73-/- mice fed 0.6 g/l caffeine in water for five days) was “much less intense green color than wild type mice”. The “FITC-Dextran extravasation across the blood brain barrier (green color of brain sections)” value (blood brain barrier; wild type mice fed 0.6 g/l caffeine in water for five days) was “intensely green background”.

B1: PEG-ADA: Pegylated adenosine deaminase (protein, UniProt P56658 2-363, looked up)
Adenosine deaminase: AQTPAFNKPKVELHVHLDGAIKPETILYYGRKRGIALPADTPEELQNIIGMDKPLSLPEFLAKFDYYMPAIAGCREAVKRIAYEFVEMKAKDGVVYVEVRYSPHLLANSKVEPIPWNQAEGDLTPDEVVSLVNQGLQEGERDFGVKVRSILCCMRHQPSWSSEVVELCKKYREQTVVAIDLAGDETIEGSSLFPGHVKAYAEAVKSGVHRTVHAGEVGSANVVKEAVDTLKTERLGHGYHTLEDATLYNRLRQENMHFEVCPWSSYLTGAWKPDTEHPVVRFKNDQVNYSLNTDDPLIFKSTLDTDYQMTKNEMGFTEEEFKRLNINAAKSSFLPEDEKKELLDLLYKAYGMPSPASAEQCL
modifications: PEG
notes: Pegylated adenosine deaminase
B1 was tested, and the “EAE development (mean EAE score)” value (EAE-induced mice; wild type mice, 15 units/kg body weight i.p. every 4 days, vs PBS vehicle) was “inhibits development of EAE in wild type mice”.
